Reference: ChEMBL document CHEMBL1151614, “Microbial transformations of natural antitumor agents, 25. Conversions of 3-ketoaphidicolin” (1984)
In brackets after ≈: the same amount, converted by molar mass.

What follows are compounds tested on P388 (assay: In vivo antitumor activity against mouse P388 cells).
Type: functional

C[C@@]1(CO)[C@H](O)CC[C@@]2(C)[C@H]1[C@H](O)C[C@H]1C[C@@H]3C[C@@]12CC[C@]3(O)CO and C[C@@]1(CO)[C@@H](O)CC[C@@]2(C)[C@H]1CC[C@H]1C[C@@H]3C[C@@]12CC[C@]3(O)CO are within 1.5-fold of each other in ED50: 18 µg/mL (≈ 50.8 µM) for the first, 13 µg/mL (≈ 38.4 µM) for the second.

First: C[C@@H]1C(=O)CC[C@@]2(C)[C@H]1CC[C@H]1C[C@@H]3C[C@@]12CC[C@]3(O)CO
Second: C[C@]12CCC(=O)[C@@](C)(CO)[C@@H]1CC[C@H]1C[C@@H]3C[C@@]12CC[C@]3(O)CO
The ED50 of the first is 5-fold higher: 12 µg/mL (≈ 39.2 µM) for the first, 2.4 µg/mL (≈ 7.13 µM) for the second.

Going from C[C@@]1(C(=O)O)[C@H](O)CC[C@@]2(C)[C@H]1CC[C@H]1C[C@@H]3C[C@@]12CC[C@]3(O)CO to C[C@@]1(CO)[C@H](O)CC[C@@]2(C)[C@H]1CC[C@H]1C[C@@H]3C[C@@]12CC[C@]3(O)CO [APHIDICOLIN], the ED50 falls from 2.2 µg/mL (≈ 6.24 µM) to 0.13 µg/mL (≈ 0.384 µM) (17-fold).

With C[C@]12CCC(=O)[C@@](C)(CO)[C@@H]1[C@H](O)C[C@H]1C[C@@H]3C[C@@]12CC[C@]3(O)CO the ED50 was 100 µg/mL (≈ 284 µM).
